By IC50 is commonly meant the concentration that inhibits the measured activity by half.

Experimental findings from patent US20050215548A1 (Cyclacel Limited, priority 2002, published 2005) are described below.

In one data set the target is T1, HDM2 (Homo sapiens, UniProt Q00987).
T1 construct: Recombinant HDM2 (1.5 μg per well) in TBS-BSA buffer
As to the kind of experiment: Fluorescence polarisation competitive HDM2 binding assay. In outline:
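Recombinant HDM2 (1.5 μg/well) was preincubated 5 min at room temperature with serially diluted compound in 50 mM Tris pH 7.4, 150 mM NaCl, 0.1% BSA, 5% DMSO final. Fluorescein-labelled p53 peptide (0.2 μM) was then added for 45 min. Polarisation was read at 485/520 nm and IC50 derived from dose-response curves.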
In general terms: In fluorescence polarisation assays a small probe gives low polarisation when free and higher when bound to something large.

A further data set concerns SJSA-1. As to the kind of experiment: 72-h MTT cytotoxicity assay, SJSA-1. Type of data set: cell-based. Conditions: Homo sapiens, SJSA-1; 72-h MTT; Table 1; read-out: IC50 Anti-proliferative effect on cell line SJSA-1. As for the experimental part: (§1) The fluorescence polarisation competitive HDM2 binding assay described in Example 3 was used. Furthermore, the anti-proliferative potency of the compounds against three human tumour cell lines with different genetic make-up was also determined. […] The cell lines used were as follows: AGS, gastric adenocarcinoma, wild-type p53; H1299, large cell lung carcinoma, p53 null, low HDM2; SJSA-1, primitive multipotential bone sarcoma, wild-type p53, overexpressed HDM2.
(§2) Representative bisarylsulfonamide compounds were tested on a panel of transformed and non-transformed human cell lines, using a standard 72-h MTT cytotoxicity assay [Haselsberger K et al, ibid].
For orientation: Formazan colour is commonly taken as a measure of viable cells.

A further data set relates to H1299. As to the kind of experiment: 72-h MTT cytotoxicity assay, H1299. The settings on record: Homo sapiens, NCI-H1299; 72-h MTT; Table 1; read-out: IC50 Anti-proliferative effect on cell line H 1299. Type of data set: cell-based. As for the experimental part: as §1, §2
A further data set has as its system p53. Kind of data set: p53 reporter gene assay (U2OS-derived luciferase reporter cell line). Conditions: for Fold induction of luciferase activity: compared to basal luciferase activity, 16-h time point, at concentration of maximal induction; for Concentration (test compound concentration at which the p53 induction was maximal): p53 reporter, U2OS-derived cell line.

The subject of another data set is AGS. Kind of data set: 72-h MTT cytotoxicity assay, AGS. Type of data set: cell-based. The settings on record: Homo sapiens, 72-h MTT, Table 1, read-out: IC50 Anti-proliferative effect on cell line AGS. On the procedure:
as §1, §2

Where [1] appears, read: fluorescence polarisation assay, Table 3, read-out: In vitro competitive HDM2 binding assay IC50.
[2] abbreviates: fluorescence polarisation format, Table 1, read-out: IC50 In vitro competitive HDM2 binding assay.

Read-outs that look alike come from different tables or passages of the source.

T1 sequence (Q00987 whole entry): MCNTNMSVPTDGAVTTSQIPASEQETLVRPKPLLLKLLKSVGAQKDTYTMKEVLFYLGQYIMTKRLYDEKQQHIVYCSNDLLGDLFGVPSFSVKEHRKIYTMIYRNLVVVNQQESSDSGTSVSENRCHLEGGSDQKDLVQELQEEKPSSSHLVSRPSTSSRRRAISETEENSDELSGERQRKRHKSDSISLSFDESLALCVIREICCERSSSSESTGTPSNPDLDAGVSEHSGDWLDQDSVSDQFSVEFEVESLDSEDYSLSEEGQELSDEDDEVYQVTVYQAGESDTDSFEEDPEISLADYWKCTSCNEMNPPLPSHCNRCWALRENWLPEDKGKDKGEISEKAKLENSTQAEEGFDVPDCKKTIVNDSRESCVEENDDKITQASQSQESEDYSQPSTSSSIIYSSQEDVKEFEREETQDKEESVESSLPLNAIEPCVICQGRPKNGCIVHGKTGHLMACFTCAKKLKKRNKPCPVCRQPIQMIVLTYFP

Consider `O=[N+]([O-])c1cc(S(=O)(=O)Nc2ccc(Cl)cc2)ccc1Cl` [Compound 38, 4-Chloro-N-(4-chlorophenyl)-3-nitro-benzenesulfonamide], for which the concentration for half-maximal inhibition (IC50) on HDM2 (setting [1]) came out at 231 ± 13 µM; at HDM2 (setting [2]), 232 ± 13 µM; in the data set with SJSA-1, 22 ± 4 µM; with H1299, 11 ± 4 µM; with AGS it was 16 ± 4 µM. Also, the “Fold induction of luciferase activity” value with p53 is reported as 4 fold. The “Concentration (test compound concentration at which the p53 induction was maximal)” value (“Concentration” for short) with p53 came out at 13 µM.

As to `O=[N+]([O-])c1cc(S(=O)(=O)NCc2ccc(F)cc2)sc1Cl` [Compound 45, 5-Chloro-4-nitrothiophene-2-sulfonic acid 4-fluorobenzylamide], the IC50 at HDM2 (setting [1]) amounted to 16 ± 3.7 µM; at HDM2 (setting [2]), 16 ± 3.7 µM; in the data set with SJSA-1, 11.5 ± 3 µM; in the data set on H1299, 11.1 ± 3.1 µM; in the data set on AGS it was 7.5 ± 4.4 µM. Moreover, the “Fold induction of luciferase activity” value with p53 is listed as 67 fold. For the same compound, the “Concentration” value with p53 was 15 µM.

Take `CN(c1ccc(C(F)(F)F)cc1)S(=O)(=O)c1cc([N+](=O)[O-])c(Cl)s1` [Compound 50, 5-Chloro-4-nitrothiophene-2-sulfonic acid methyl-(4-trifluoromethylphenyl)amide]: the half-maximal inhibitory concentration (IC50) on HDM2 (setting [1]) is 7.3 ± 0.6 µM; at HDM2 (setting [2]) it was 7.3 ± 0.6 µM; in the data set on SJSA-1, 35.4 ± 11.5 µM; with H1299, 34.7 ± 6.1 µM; in the data set on AGS, 30.3 ± 0.3 µM. The “Fold induction of luciferase activity” value in the data set on p53 was found to be 21 fold. Moreover, the “Concentration” value with p53 was determined as 39 µM.

As for `O=[N+]([O-])c1cc(S(=O)(=O)NCc2cc(Cl)cc(Cl)c2)sc1Cl` [Compound 54, 5-Chloro-4-nitro-thiophene-2-sulfonic acid 3,5-dichloro-benzylamide], the half-maximal inhibitory concentration (IC50) on HDM2 (setting [1]) was found to be 20.2 ± 1.3 µM; on HDM2 (setting [2]), 20.2 ± 1.3 µM; in the data set with SJSA-1, 12 ± 0.4 µM; in the data set on H1299 it was 9.7 ± 2.9 µM; with AGS it was 5.6 ± 0.2 µM. Further, the “Fold induction of luciferase activity” value in the data set on p53 was 90 fold. Further, the “Concentration” value in the data set on p53 is 10 µM.

Turning to `O=[N+]([O-])c1cc(S(=O)(=O)NCc2cc(F)cc(F)c2)sc1Cl` [Compound 55, 5-Chloro-4-nitro-thiophene-2-sulfonic acid 3,5-difluoro-benzylamide], the IC50 on HDM2 (setting [1]) amounted to 27 ± 10.1 µM; on HDM2 (setting [2]), 27 ± 10.1 µM; with SJSA-1, 13.3 ± 2.1 µM; in the data set with H1299 it was 9.3 ± 2.5 µM; with AGS it was 7 µM. Further, the “Fold induction of luciferase activity” value with p53 is 53 fold. For the same compound, the “Concentration” value in the data set on p53 was 10 µM.

In the case of `CC(NS(=O)(=O)c1cc([N+](=O)[O-])c(Cl)s1)c1ccc(F)cc1` (centres unmarked) [Compound 57, 5-Chloro-4-nitro-thiophene-2-sulfonic acid [1-(4-fluoro-phenyl)-ethyl]-amide], the IC50 on HDM2 (setting [1]) came to 31.1 ± 5.6 µM; at HDM2 (setting [2]), 31.1 ± 5.6 µM; with SJSA-1 it was 5.9 ± 0.2 µM; in the data set with H1299, 2.7 ± 0.6 µM; in the data set with AGS it was 1.7 ± 0.3 µM. Also, the “Fold induction of luciferase activity” value in the data set on p53 is 25 fold. Further, in the data set with p53, the “Concentration” value is 7 µM.

As for `Cc1ccc(NS(=O)(=O)c2cc([N+](=O)[O-])c(Cl)s2)cc1` [Compound 63, 5-Chloro-4-nitro-thiophene-2-sulfonic acid p-tolylamide], the IC50 amounted to 35 ± 8 µM on HDM2 (setting [1]); 35 ± 8 µM on HDM2 (setting [2]); 5.7 ± 1.6 µM with SJSA-1; 3.9 ± 0.9 µM with H1299; 1.7 ± 0.6 µM in the data set on AGS. Besides, in the data set on p53, the “Fold induction of luciferase activity” value came to 95 fold. In the data set with p53, the “Concentration” value is 6.4 µM.

Take `O=[N+]([O-])c1cc(S(=O)(=O)N(Cc2ccccc2)c2ccc(Cl)cc2)sc1Cl` [Compound 65, 5-Chloro-4-nitro-thiophene-2-sulfonic acid benzyl-(4-chloro-phenyl)-amide]: the 50% inhibitory concentration (IC50) is 7.4 ± 1 µM on HDM2 (setting [1]); 7.4 ± 1 µM at HDM2 (setting [2]); 11.1 ± 6.7 µM in the data set on SJSA-1; 10.8 ± 4.3 µM in the data set on H1299; 5.2 ± 2.2 µM in the data set on AGS. For the same compound, the “Fold induction of luciferase activity” value in the data set on p53 worked out at 74 fold. Moreover, the “Concentration” value with p53 stood at 10 µM.

`COc1ccc(N(Cc2ccccc2)S(=O)(=O)c2cc([N+](=O)[O-])c(Cl)s2)cc1` [Compound 66, 5-Chloro-4-nitro-thiophene-2-sulfonic acid benzyl-(4-methoxy-phenyl)-amide]: the IC50 on HDM2 (setting [1]) turned out to be 14.7 ± 0.9 µM; at HDM2 (setting [2]), 14.7 ± 0.9 µM; in the data set with SJSA-1, 3.9 ± 1.3 µM; with H1299, 3.9 ± 0.5 µM; in the data set on AGS it was 2.4 ± 0.2 µM. Moreover, the “Fold induction of luciferase activity” value in the data set on p53 is recorded as 65 fold. The “Concentration” value in the data set on p53 is 4.2 µM.

Regarding `O=[N+]([O-])c1cc(S(=O)(=O)N(Cc2cccc(C(F)(F)F)c2)c2ccc(Cl)cc2)sc1Cl` [Compound 67, 5-Chloro-4-nitro-thiophene-2-sulfonic acid (4-chloro-phenyl)-(3-trifluoromethyl-benzyl)-amide], the IC50 on HDM2 (setting [2]) turned out to be 8.5 ± 3.2 µM; in the data set on SJSA-1, 11.8 ± 1.6 µM; in the data set with H1299 it was 12 ± 1 µM; in the data set on AGS, 6.7 ± 0.9 µM.

For the compound `O=[N+]([O-])c1cc(S(=O)(=O)N(Cc2ccc(C(F)(F)F)cc2)Cc2cccc(C(F)(F)F)c2)sc1Cl` [Compound 75, 5-Chloro-4-nitro-thiophene-2-sulfonic acid (3-trifluoro-methyl-benzyl)-(4-trifluoromethyl-benzyl)-amide], the IC50 on HDM2 (setting [2]) was found to be 3.5 ± 10 µM; in the data set on SJSA-1, 18 µM; in the data set on H1299 it was 16 µM; in the data set on AGS, 9 µM.

Consider `O=[N+]([O-])c1cc(S(=O)(=O)NCCc2c[nH]c3ccc(Cl)cc23)ccc1Cl` [Compound 81, 4-Chloro-N-[2-(5-chloro-1H-indol-3-yl)-ethyl]-3-nitro-benzenesulfonamide], for which the concentration for half-maximal inhibition (IC50) on HDM2 (setting [2]) is 311 ± 21 µM; in the data set on SJSA-1 it was 51 ± 1 µM; in the data set on H1299 it was 39 ± 6 µM; with AGS, 29 ± 2 µM.

With `Cc1ccc(S(=O)(=O)NCCc2c[nH]c3ccc(Cl)cc23)cc1[N+](=O)[O-]` [Compound 82, N-[2-(5-Chloro-1H-indol-3-yl)-ethyl]-4-methyl-3-nitro-benzenesulfonamide], the IC50 at HDM2 (setting [2]) was found to be 338 ± 111 µM; in the data set with SJSA-1, 65 ± 4 µM; in the data set on H1299 it was 49 µM; in the data set on AGS, 50 µM.

Regarding `O=[N+]([O-])c1ccc(NS(=O)(=O)c2cc(C(F)(F)F)cc(C(F)(F)F)c2)cc1Cl` [Compound 105, N-(3-Chloro-4-nitro-phenyl)-3,5-bis-trifluoromethyl-benzenesulfonamide], the IC50 at HDM2 (setting [2]) is 153 ± 18 µM; in the data set on SJSA-1, 37 ± 18 µM; with H1299, 25 ± 1 µM; in the data set on AGS, 24 ± 3 µM.
